In publication PMC8653149, “Cyclic Analogs of Desferrioxamine E Siderophore for ^68Ga Nuclear Imaging: Coordination Chemistry and Biological Activity in Staphylococcus aureus” (Inorganic Chemistry, 2021):

Columns and labels:
[1] = Ligand–ligand competition UV–vis titrations of Fe(III) complexes vs EDTA; type: physicochemical; settings: [L] = 1.5·10^-4 M, M:L ratio 1:1, pH = 7, T = 25°C, I = 0.1 M NaClO4
Description: In this series of experiments, the stock solution of FOX ligand was divided into various batches followed by metal addition with a constant total volume of 2 mL, [Fe(III)] = 2 × 10^–4, and a metal-to-ligand molar ratio of 1:1. The EDTA ligand was added to a previously prepared series of solutions in increasing concentration, from a 0 to 10 molar excess for FOX 2-5 and from a 0 to 1.2 molar excess for the rest of the derivatives. pH was adjusted to ∼7 with the NaOH solution. After preparation, each solution was allowed to equilibrate for 3–7 days, depending on the investigated complex. Changes were observed between the collected spectra, and they were measured consequently until no further changes were present. The UV–vis spectra were recorded (Figure S4), and competition data were refined to obtain the overall Fe(III)-FOXE derivative binding constant (logβFe(III)L). The protonation constants of FOXE derivatives (Table S4) and formation constants for Fe(III)-FOXE derivative complex species (Table S5) were treated as fixed parameters in data analysis.
The spectrophotometric competition experiments with EDTA
The spectrophotometric competition experiments with EDTA were performed at fixed pH 7.0,
to compete effectively with the tris-hydroxamates for ferric ion at intermediate pH values (5-8)
if an excess of EDTA is used. The competition equilibrium is described by equations (S5) and
Fe IIIL  EDTA K  FeIII EDTA  L (S5)
[FeIII L][EDTA]  Fe(III)L (S6)
The competition data were refined to obtain the overall Fe(III)-FOX binding constant logβ FeL
(Table S7) for analogs using a model involving two ligands and one metal.
The concentration of Fe(III)-analog complex for each derivative, [FeL], was calculated from
the absorbance maximum at around 420 nm (where FeL is the only light-absorbing species) and
previously determined extinction coefficients. The concentrations of other species in equation
(S6) were calculated from mass balance equations using the experimental pH values:
[Fe]tot =  FeL[FeL] +  FeEDTA[FeEDTA]
[L]tot =  FeL[FeL] +  L[L]
[EDTA]tot =  FeEDTA[FeEDTA] +  EDTA[EDTA]
a is the usual Ringbom’s coefficient.

[2] = Ligand protonation constants by potentiometric titration; type: physicochemical; settings: [L] = 1·10^-3 M, T = 25°C, I = 0.1 M NaClO4
Description: Potentiometric titrations were performed using an automatic titrator system Titrando 905 (Metrohm) equipped with a 800 Dosino dosing unit and a microburet with a volume of 2 mL. A combined glass electrode was calibrated each day for hydrogen ion concentration by 0.1 M HClO4 with CO2-free 0.1 M NaOH solutions. A stream of high purity grade argon, presaturated with water vapor, passed over the surface of the solution cell, filled with 3 mL of the studied solution. For each system, a minimum of four independent titrations was performed. The purity of ligand and accurate concentration of ligand solution were determined before each experiment with the Gran method[68] by potentiometric titration of the 3 mL sample of the ligand, with [L] ∼ 1 × 10^–3 M. In separate potentiometric titrations, the metal-to-ligand ratio was 1:1, and the concentration of metal was 2 × 10^–3 M. The potentiometric data were refined to obtain the overall Fe(III)-FOXE and Ga(III)-FOXE derivative binding constants (logβFe(III)L, logβGa(III)L). […]
Ligand’s protonation constants
The acid-base properties of investigated ligands were studied by potentiometric technique. The optimized logβ values defined by equations (S1) and (S2) were calculated using […] 1 […]
or Hyperquad 20062 programs (Table S4). For the sake of simplicity charges are omitted in all chemical equilibria given here.
Table S4. Protonation (logβ H) constants for studied ligandsa […]
aConstants determined from potentiometric titrations. Conditions: [L] = 1·10^-3 M, T = 25°C, I = 0.1 M NaClO 4, b Ref 3 […]

[3] = Cyclic voltammetry of Fe(III)-FOXE derivative complexes (redox potential, Fe(II) stability constants); type: physicochemical; settings: for E1/2 vs NHE: CV; for E1/2 vs NHE / logβFe(II): [L] = 2 × 10^–3 M, M:L 1:1, pH = 7, T = 25 °C; for E°complex: [Fe(III)] = 2·10^-3 M, M:L ratio 1:1, pH = 7, T = 25°C, I = 0.1M NaClO4, glass-carbon working electrode; for logβFe(II): calculated from CV measurement
Description: Redox chemistry of Fe(III) species was determined in cyclic voltammetry (CV) assays. […] We have obtained quasireversible voltammograms for Fe(III)-FOXE analog complexes (Figure S8), with ΔE ranging from −369 mV to −470 mV. The values of E1/2 (Table 1) were recalculated vs normal hydrogen electrode (NHE). To ensure that only fully hexacoordinated complexes [FeL] were characterized, experiments were carried out at fixed pH = 7 where this form is dominating in solution. Higher strength of the complex (larger pM value) correlates to lower redox potential. This behavior was in agreement with previously reported data[61],[62] for similar complexation systems.
Redox potentials for Fe(III)-FOXE derivatives were determined using cyclic voltammetry with a VA 797 Computrace Voltammeter (Metrohm) equipped with glass-carbon, AgCl/Cl, and platinum wire electrodes. Concentration of the measured samples was [Fe(III)] = 2 × 10^–3, M:L ratio 1:1, at 25.0 ± 0.1 °C; pH 7.0 was provided by addition of a suitable amount of NaOH under control of a pH meter. The scan range was from −0.3 V to −1 V in a cycle: Fe(III)–FOX [drawing 1] Fe(II)–FOX [drawing 2] Fe(III)–FOX. Received data (Figure S8) was standardized for the NHE electrode. The electrochemical data were refined to obtain the overall Fe(II)-FOXE derivative binding constant (logβFe(II)L^–) by implementing the Nernst equation (S1).
Figure S8. CV voltammograms used to calculate (logβ) constants for studied complexes a with
Fe(II) ions: a) FOX 2-2, b) Fe-FOX 2-3, c) FOX 2-4, d) FOX 2-5, e) FOX 3-5
aConditions: [Fe(III)] = 2·10^-3 M, M:L ratio 1:1, pH = 7, T = 25°C, I = 0.1M NaClO 4 on glass-carbon working
For each complex the stability constant for Fe(II)-analog was calculated using eq. S10
E complex ― Eaq = ―59.15log (βII) (S10)
Table S9. E 1/2 and stability (logβ) constants for studied complexes with Fe(II) ions a […]

[4] = Distribution coefficient (logD) of ^68Ga-labeled ligands between octanol and PBS
[5] = Fe(III) complex stability constants by potentiometric and pH-dependent UV–vis titrations; type: physicochemical; settings: I = 0.1 M NaClO4; for logβ[FeHL]+ / logβ[FeL] / pKNHOH of Fe(III) complex: M:L 1:1, T = 25°C; for logβFe(III)L: potentiometric [L] = 1 × 10^–3 M and UV–vis 5 × 10^–5 M, M:L 1:1, T = 25 °C
[6] = UV-Vis pH-dependent titrations, 1·10^-4 M
[7] = potentiometric, [L] = 1·10^-3 M

SMILES | logβ[FeL] [1] | protonation constant logβ, H2L + H+ ↔ H3L [2] | protonation constant logβ, HL + H+ ↔ H2L [2] | protonation constant logβ, L + H+ ↔ HL [2] | E1/2 vs NHE [3] | E°complex [3] [mV] | logβFe(II) [3] | logD at 20 min [4] | logβ[FeHL]+ [5, 6] | logβ[FeL] [5, 6] | pKNHOH of Fe(III) complex [5, 6] | logβFe(III)L [5] | logβ[FeL] [5, 7] | pKNHOH of Fe(III) complex [5, 7]
O=C1CCCN(O)C(=O)CCNC(=O)CCCN(O)C(=O)CCNC(=O)CCCN(O)C(=O)CCN1 [FOX 2-3] | 26.55 (3) | 27.71(1) | 19.27(1) | 9.94(1) | –432 mv | -432 | 7.54 | -2.96 | 30.44 (5) | 26.70 (9) | 3.74 | 27.22(2) | 27.22 (2) | 3.22
O=C1CCCCN(O)C(=O)CCNC(=O)CCCCN(O)C(=O)CCNC(=O)CCCCN(O)C(=O)CCN1 [FOX 2-4] | 27.13 (1) | 27.64(1) | 19.21(1) | 9.93(1) | –426 mv | -426 | 9.12 | -3.02 | 30.83 (4) | 28.71 (7) | 2.12 | 28.71(7) | – | –
O=C1CCCCCN(O)C(=O)CCNC(=O)CCCCCN(O)C(=O)CCNC(=O)CCCCCN(O)C(=O)CCN1 [FOX 2-5] | 28.81 (1) | 26.53(1) | 19.09(1) | 9.86(1) | –452 mv | -452 | 11.29 | -1.9 | – | 31.32 (8) | – | – | – | –
O=C1CCCCCN(O)C(=O)CCCNC(=O)CCCCCN(O)C(=O)CCCNC(=O)CCCCCN(O)C(=O)CCCN1 [FOX 3-5] | 28.38 (1) | 27.79(1) | 19.53(1) | 10.19(1) | –416 mv | -416 | 8.48 | -1.57 | – | 28.59 (3) | 2.54 | – | 28.81 (1) | 2.32
O=C1CCN(O)C(=O)CCNC(=O)CCN(O)C(=O)CCNC(=O)CCN(O)C(=O)CCN1 [FOX 2-2] | 26.57 (4) | 27.62(2) | 19.28(1) | 9.97(1) | –369 mv | -369 | 7.48 | -2.66 | 30.64 (6) | – | – | 25.92(8) | 25.92 (8) | 4.72
